From article PMC8159961, “Exploring protein hotspots by optimized fragment pharmacophores” (Nature Communications, 2021)
“And” between values parts separate entries of the source, which are not always exact repeats. Equal entries are not always repeated. Where two headings read alike, the source gives them in different places.

Tests used:
human thrombin = molecular target: T1, human thrombin (Homo sapiens, UniProt P00734); experiment: Protease inhibitory assay, chromogenic substrate S-2238; assay type: biochemical; details: for Ki: plate layout, label = plate position, Cheng-Prusoff, Km 2.6 µM, read-out: Thrombin Ki; for experimental hit status, Thrombin: 1 = hit, 0 = no hit, screening at 200 µM
T1 construct: human thrombin; purchased Sigma-Aldrich

bovine factor Xa = molecular target: T2, bovine factor Xa (Bos taurus, UniProt P00743); experiment: Protease inhibitory assay, chromogenic substrate S-2222; assay type: biochemical; details: for experimental hit status, Factor Xa: 1 = hit, 0 = no hit, screening at 200 µM
T2 construct: bovine factor Xa, Chromogenix, 2 nkat/mL; purchased Chromogenix
T2 sequence (P00743 234-492 limits assumed): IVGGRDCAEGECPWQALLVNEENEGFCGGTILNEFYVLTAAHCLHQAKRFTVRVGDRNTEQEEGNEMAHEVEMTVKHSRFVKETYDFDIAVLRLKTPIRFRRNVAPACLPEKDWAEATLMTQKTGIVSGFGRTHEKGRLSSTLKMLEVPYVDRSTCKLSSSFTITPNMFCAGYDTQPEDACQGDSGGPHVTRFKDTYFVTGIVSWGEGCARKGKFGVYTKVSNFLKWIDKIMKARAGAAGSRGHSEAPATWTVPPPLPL
T2 sequence (P00743 41-180 partner limits assumed): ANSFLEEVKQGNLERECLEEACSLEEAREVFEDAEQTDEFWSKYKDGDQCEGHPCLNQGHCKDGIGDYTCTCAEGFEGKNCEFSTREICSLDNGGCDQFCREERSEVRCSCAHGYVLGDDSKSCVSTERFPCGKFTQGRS

human 5-HT1A receptor = molecular target: T3, human 5-HT1A receptor (Homo sapiens, UniProt P08908); experiment: GPCR radioligand binding assay, [3H]-8-OH-DPAT displacement, HEK293 membranes; details: for experimental hit status, 5-HT1: 1 = hit, 0 = no hit, tested at 10 µM, hit = 50% or stronger inhibition
T3 construct: expressed in transfected cells
T3 sequence (P08908 1-422): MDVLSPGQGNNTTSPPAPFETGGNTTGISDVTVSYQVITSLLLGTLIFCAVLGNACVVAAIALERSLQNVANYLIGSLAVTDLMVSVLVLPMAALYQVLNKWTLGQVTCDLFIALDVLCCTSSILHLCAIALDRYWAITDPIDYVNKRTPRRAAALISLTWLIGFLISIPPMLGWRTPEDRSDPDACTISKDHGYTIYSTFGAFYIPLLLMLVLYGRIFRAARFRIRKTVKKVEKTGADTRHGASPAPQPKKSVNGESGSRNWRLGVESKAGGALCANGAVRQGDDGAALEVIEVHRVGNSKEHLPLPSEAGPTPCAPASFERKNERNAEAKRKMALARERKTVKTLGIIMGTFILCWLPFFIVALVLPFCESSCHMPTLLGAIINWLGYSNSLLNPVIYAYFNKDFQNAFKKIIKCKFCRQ

human 5-HT6 receptor = molecular target: T4, human 5-HT6 receptor (Homo sapiens, UniProt P50406); experiment: GPCR radioligand binding assay, [3H]-LSD displacement, HEK293 membranes; details: for experimental hit status, 5-HT6: 1 = hit, 0 = no hit, tested at 10 µM, hit = 50% or stronger inhibition
T4 construct: expressed in transfected cells
T4 sequence (P50406 whole entry): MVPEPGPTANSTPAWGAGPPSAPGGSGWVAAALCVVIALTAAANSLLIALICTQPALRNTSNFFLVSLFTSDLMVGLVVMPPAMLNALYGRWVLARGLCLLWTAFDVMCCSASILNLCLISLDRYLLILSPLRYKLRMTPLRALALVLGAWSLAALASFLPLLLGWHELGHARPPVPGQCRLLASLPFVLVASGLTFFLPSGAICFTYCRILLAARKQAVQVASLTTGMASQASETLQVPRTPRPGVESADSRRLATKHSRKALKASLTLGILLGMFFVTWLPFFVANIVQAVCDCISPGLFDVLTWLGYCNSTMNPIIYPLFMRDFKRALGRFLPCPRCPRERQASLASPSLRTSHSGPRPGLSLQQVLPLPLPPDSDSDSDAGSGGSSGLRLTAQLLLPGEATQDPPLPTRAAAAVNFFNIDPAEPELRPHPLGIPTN

human 5-HT7b receptor = molecular target: T5, human 5-HT7b receptor (Homo sapiens, UniProt P34969); experiment: GPCR radioligand binding assay, [3H]-5-CT displacement, HEK293 membranes; details: for experimental hit status, 5-HT7: 1 = hit, 0 = no hit, tested at 10 µM, hit = 50% or stronger inhibition
T5 construct: expressed in transfected cells
T5 sequence (P34969 1-432): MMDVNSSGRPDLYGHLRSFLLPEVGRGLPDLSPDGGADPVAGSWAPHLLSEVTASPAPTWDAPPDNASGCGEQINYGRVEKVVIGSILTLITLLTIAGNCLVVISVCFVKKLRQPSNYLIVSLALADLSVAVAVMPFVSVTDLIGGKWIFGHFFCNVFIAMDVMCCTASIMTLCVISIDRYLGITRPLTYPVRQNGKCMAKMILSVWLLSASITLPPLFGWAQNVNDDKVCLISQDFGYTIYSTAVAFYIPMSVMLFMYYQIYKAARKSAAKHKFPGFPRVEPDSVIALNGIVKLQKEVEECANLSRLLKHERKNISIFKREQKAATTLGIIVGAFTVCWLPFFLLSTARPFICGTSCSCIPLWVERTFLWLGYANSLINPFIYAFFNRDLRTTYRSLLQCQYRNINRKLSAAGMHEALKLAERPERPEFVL

recombinant SETD2 = molecular target: T6, recombinant SETD2 (Homo sapiens, UniProt Q9BYW2); experiment: SETD2 Chemiluminescence assay (H3K36 tri-methylation); assay type: biochemical; details: for experimental hit status, SETD2: 1 = hit, 0 = no hit; for SETD2 signal normalised to positive control and internally to compound: nM], replicates
T6 construct: purchased BPS Bioscience 52060
T6 sequence (Q9BYW2 1418-1714 limits assumed): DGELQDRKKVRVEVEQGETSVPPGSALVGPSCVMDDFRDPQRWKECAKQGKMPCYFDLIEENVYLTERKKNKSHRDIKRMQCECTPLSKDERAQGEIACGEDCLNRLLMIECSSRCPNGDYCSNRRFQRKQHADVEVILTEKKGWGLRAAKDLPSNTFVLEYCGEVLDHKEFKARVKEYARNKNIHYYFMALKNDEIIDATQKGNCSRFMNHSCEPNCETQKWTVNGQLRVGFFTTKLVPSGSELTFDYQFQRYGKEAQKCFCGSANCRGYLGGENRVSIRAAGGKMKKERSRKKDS

[1] = 10 µM, read-out: 5-HT1A % Inhibition by plate position
[2] = 5-HT1A, average of exp_1 and exp_2, read-out: %inh 5-HT1A average
[3] = 5-HT1A, average, values below 0 and above 100% were set as 0 and 100, read-out: %inh 5-HT1A corrected*
[4] = 5-HT1A, replicate exp_1, read-out: %inh 5-HT1A exp_1
[5] = 5-HT1A, replicate exp_2, read-out: %inh 5-HT1A exp_2
[6] = 10 µM, read-out: 5-HT6 % Inhibition by plate position
[7] = 5-HT6, average of exp_1 and exp_2, read-out: %inh 5-HT6 average
[8] = 5-HT6, average, values below 0 and above 100% were set as 0 and 100, read-out: %inh 5-HT6 corrected*
[9] = 5-HT6, replicate exp_1, read-out: %inh 5-HT6 exp_1
[10] = 5-HT6, replicate exp_2, read-out: %inh 5-HT6 exp_2
[11] = 10 µM, read-out: 5-HT7 % Inhibition by plate position
[12] = 5-HT7, average of exp_1 and exp_2, read-out: %inh 5-HT7 average
[13] = 5-HT7, average, values below 0 and above 100% were set as 0 and 100, read-out: %inh 5-HT7 corrected*
[14] = 5-HT7, replicate exp_1, read-out: %inh 5-HT7 exp_1
[15] = 5-HT7, replicate exp_2, read-out: %inh 5-HT7 exp_2

| Structure (SMILES) | inhibition at 10 µM (human 5-HT1A receptor; [1]) [%] | inhibition at 10 µM (human 5-HT1A receptor; [2]) [%] | inhibition at 10 µM (human 5-HT1A receptor; [3]) [%] | inhibition at 10 µM (human 5-HT1A receptor; [4]) [%] | inhibition at 10 µM (human 5-HT1A receptor; [5]) [%] | inhibition at 10 µM (human 5-HT6 receptor; [6]) [%] | inhibition at 10 µM (human 5-HT6 receptor; [7]) [%] | inhibition at 10 µM (human 5-HT6 receptor; [8]) [%] | inhibition at 10 µM (human 5-HT6 receptor; [9]) [%] | inhibition at 10 µM (human 5-HT6 receptor; [10]) [%] | inhibition at 10 µM (human 5-HT7b receptor; [11]) [%] | inhibition at 10 µM (human 5-HT7b receptor; [12]) [%] | inhibition at 10 µM (human 5-HT7b receptor; [13]) [%] | inhibition at 10 µM (human 5-HT7b receptor; [14]) [%] | inhibition at 10 µM (human 5-HT7b receptor; [15]) [%] | experimental hit status, Thrombin (human thrombin) | experimental hit status, Factor Xa (bovine factor Xa) | experimental hit status, 5-HT1 (human 5-HT1A receptor) | experimental hit status, SETD2 (recombinant SETD2) | experimental hit status, 5-HT6 (human 5-HT6 receptor) | other results |
| --- | --- | --- | --- | --- | --- | --- | --- | --- | --- | --- | --- | --- | --- | --- | --- | --- | --- | --- | --- | --- | --- |
| CC(=O)c1sc(-c2ccc(O)cc2)nc1C [E1] | 0 | -8.44 | 0 | 1.63 | -19 | 65 | 65 | 65 | 71 | 58 | 43 | 43 | 43 | 36 | 50 | – | – | – | – | – | Ki (human thrombin): 229 µM; Ki (bovine factor Xa): 734 µM |
| Cc1cc2ccccc2nc1N [SX001] | 0 | -13 | 0 | -0.697 | -25 | 33 | 33 | 33 | 29 | 37 | 1.66 | 1.66 | 1.66 | 7 | -3.75 | 0 | 1 | 0 | 0 | 0 | Ki (bovine factor Xa): 149 µM; experimental hit status, 5-HT7 (human 5-HT7b receptor): 0 |
| c1cnc2cccnc2c1 [SX002] | 0 | -0.719 | 0 | -9 | 8 | 24 | 24 | 24 | 27 | 21 | 35 | 35 | 35 | 39 | 31 | 1 | 0 | 0 | 0 | 0 | Ki (human thrombin): 163 µM; experimental hit status, 5-HT7 (human 5-HT7b receptor): 0 |
| c1ccc2[nH]ccc2c1 [SX004] | – | – | – | – | – | – | – | – | – | – | – | – | – | – | – | 0 | 0 | 0 | 0 | 0 | inhibition at 10 µM (human 5-HT1A receptor; read-out: 5-HT1A % Inhibition by plate position): 0%; inhibition at 10 µM (human 5-HT1A receptor; read-out: %inh 5-HT1A average): -11%; inhibition at 10 µM (human 5-HT1A receptor; read-out: %inh 5-HT1A corrected*): 0%; inhibition at 10 µM (human 5-HT1A receptor; read-out: %inh 5-HT1A exp_1): -0.425%; inhibition at 10 µM (human 5-HT1A receptor; read-out: %inh 5-HT1A exp_2): -21%; inhibition at 10 µM (human 5-HT6 receptor; read-out: 5-HT6 % Inhibition by plate position): 16%; inhibition at 10 µM (human 5-HT6 receptor; read-out: %inh 5-HT6 average): 16%; inhibition at 10 µM (human 5-HT6 receptor; read-out: %inh 5-HT6 corrected*): 16%; inhibition at 10 µM (human 5-HT6 receptor; read-out: %inh 5-HT6 exp_1): 16%; inhibition at 10 µM (human 5-HT6 receptor; read-out: %inh 5-HT6 exp_2): 16%; experimental hit status, 5-HT7 (human 5-HT7b receptor): 0; inhibition at 10 µM (human 5-HT7b receptor; read-out: 5-HT7 % Inhibition by plate position): 0%; inhibition at 10 µM (human 5-HT7b receptor; read-out: %inh 5-HT7 average): -2.64%; inhibition at 10 µM (human 5-HT7b receptor; read-out: %inh 5-HT7 corrected*): 0%; inhibition at 10 µM (human 5-HT7b receptor; read-out: %inh 5-HT7 exp_1): 19%; inhibition at 10 µM (human 5-HT7b receptor; read-out: %inh 5-HT7 exp_2): -24% |
| CS(=O)(=O)Nc1ccc(C(=O)O)cc1 [SX084] | 9 | 9 | 9 | 9 | 9 | 38 | 38 | 38 | 38 | 38 | 9 | 9 | 9 | 5.33 | 13 | – | – | – | – | – | IC50 (recombinant SETD2; chemiluminescence-based enzymatic assay): 500 µM; SETD2 signal normalised to positive control and internally to compound (recombinant SETD2; fragment concentration 4.7 [log): 1.05 and 0.84; SETD2 signal normalised to positive control and internally to compound (recombinant SETD2; fragment concentration 5 [log): 0.76 and 0.6; SETD2 signal normalised to positive control and internally to compound (recombinant SETD2; fragment concentration 5.3 [log): 0.62 and 0.74; SETD2 signal normalised to positive control and internally to compound (recombinant SETD2; fragment concentration 5.6 [log): 0.8 and 0.95; SETD2 signal normalised to positive control and internally to compound (recombinant SETD2; fragment concentration 5.9 [log): 0.66 and 0.73 |
